In general, IC50 refers to the point on the concentration scale where inhibition reaches its midpoint. Higher therefore signals lower potency.

Here are results for 24 compounds from US20130303509A1, “NAMPT INHIBITORS” (AbbVie Inc., priority 2012, published 2013).

The test system of this assay is PC3 cells. Nature of the assay: NAMPT Cell Proliferation Assay. Type of assay: cell-based. The following applies: Homo sapiens, PC-3, 120 h, 5 days incubation, cell viability by Cell Titer Glo. The method in brief: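 Seeded at 500 cells/well in RPMI with 10% heat-inactivated FBS and left to attach overnight at 37° C, 5% CO2. Compounds were added as 10-fold dilutions […] for 5 days, then viability was read by CellTiter-Glo. IC50s came from sigmoidal fits of percent inhibition.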
(In general: Cellular ATP, detected with luciferase, serves as a proxy for viable cell number.)
The compound `Cc1ncccc1N1CC(C(=O)Nc2ccc(C3CCN(C(=O)c4ccccc4Cl)CC3)cc2)C1` [Example 151, N-{4-[1-(2-chlorobenzoyl)piperidin-4-yl]phenyl}-1-(2-methylpyridin-3-yl)azetidine-3-carboxamide] showed an IC50 of 60.9 nM. In turn, `Cc1cc(N2CC(C(=O)Nc3ccc(C4CCN(C(=O)c5ccccc5)CC4)cc3)C2)cnc1F` [Example 665, N-[4-(1-benzoylpiperidin-4-yl)phenyl]-1-(6-fluoro-5-methylpyridin-3-yl)azetidine-3-carboxamide] registered an IC50 of 7620 nM. The value for `O=C(Nc1ccc(C2CCN(C(=O)Cc3ccc(OC(F)(F)F)cc3)CC2)cc1)C1CN(c2ccnnc2)C1` [Example 561, 1-(pyridazin-4-yl)-N-[4-(1-{[4-(trifluoromethoxy)phenyl]acetyl}piperidin-4-yl)phenyl]azetidine-3-carboxamide] was 62.2 nM; that for `O=C(Nc1ccc(O[C@@H]2CCN(C(=O)Cc3cc(F)cc(F)c3)C2)cc1)C1CN(c2ccnnc2)C1` [Example 450, N-[4-({(3R)-1-[(3,5-difluorophenyl)acetyl]pyrrolidin-3-yl}oxy)phenyl]-1-(pyridazin-4-yl)azetidine-3-carboxamide] was 50.9 nM; that for `O=C(Nc1ccc(OC2CCN(C(=O)C3CCCCC3)CC2)cc1)[C@H]1CCN(c2cccnn2)C1` [Example 796, (3S)—N-(4-{[1-(cyclohexylcarbonyl)piperidin-4-yl]oxy}phenyl)-1-(pyridazin-3-yl)pyrrolidine-3-carboxamide] was 11.7 nM. The value for `CCCC(C)C(=O)N1CCC(c2ccc(NC(=O)C3CN(c4cccnn4)C3)cc2)CC1` (stereo not drawn) [Example 322, N-{4-[1-(2-methylpentanoyl)piperidin-4-yl]phenyl}-1-(pyridazin-3-yl)azetidine-3-carboxamide] was 2.14 nM. The compound `CC1(C(=O)N2CCC(c3ccc(NC(=O)C4CN(c5cccnn5)C4)c(F)c3)CC2)CC1` [Example 861, N-(2-fluoro-4-{1-[(1-methylcyclopropyl)carbonyl]piperidin-4-yl}phenyl)-1-(pyridazin-3-yl)azetidine-3-carboxamide] gave an IC50 of 7.58 nM.

Turning to `O=C(Nc1ccc(C2CCN(C(=O)c3cncs3)CC2)cc1)[C@H]1CCN(c2cccnn2)C1` [Example 630, (3S)-1-(pyridazin-3-yl)-N-{4-[1-(1,3-thiazol-5-ylcarbonyl)piperidin-4-yl]phenyl}pyrrolidine-3-carboxamide], it took 8.12 nM to reach half-maximal inhibition (IC50). In the case of `O=C(Nc1ccc(C2CCN(C(=O)c3cc(F)cc(F)c3)CC2)cc1F)C1CN(c2cccnn2)C1` [Example 834, N-{4-[1-(3,5-difluorobenzoyl)piperidin-4-yl]-2-fluorophenyl}-1-(pyridazin-3-yl)azetidine-3-carboxamide], inhibition was half-maximal at 14.4 nM (IC50). On to `O=C(Nc1ccc(OC2CCN(C(=O)c3ccccc3F)CC2)cc1)C1CN(c2ccnnc2)C1` [Example 289, N-(4-{[1-(2-fluorobenzoyl)piperidin-4-yl]oxy}phenyl)-1-(pyridazin-4-yl)azetidine-3-carboxamide], for which the IC50 stood at 53.2 nM. The value for `CC(C)CCC(=O)N1CCC(c2ccc(NC(=O)[C@H]3CCN(c4cccnn4)C3)cc2)CC1` [Example 671, (3S)-N-{4-[1-(4-methylpentanoyl)piperidin-4-yl]phenyl}-1-(pyridazin-3-yl)pyrrolidine-3-carboxamide] was 8.53 nM; that for `O=C(Nc1ccc(C2CCN(C(=O)CCS(=O)(=O)c3ccccc3)CC2)cc1)C1CN(c2cccnn2)C1` [Example 424, N-(4-{1-[3-(phenylsulfonyl)propanoyl]piperidin-4-yl}phenyl)-1-(pyridazin-3-yl)azetidine-3-carboxamide] was 1.5 nM. With `O=C(Nc1ccc(O[C@@H]2CCN(C(=O)c3ccsc3)C2)cc1)C1CN(c2ccnnc2)C1` [Example 448, 1-(pyridazin-4-yl)-N-(4-{[(3R)-1-(thiophen-3-ylcarbonyl)pyrrolidin-3-yl]oxy}phenyl)azetidine-3-carboxamide] the figure was 9.32 nM; with `O=C(Nc1ccc(C2CCN(C(=O)c3cc(F)cc(F)c3)CC2)cc1)C1CN(c2ccnnc2)C1` [Example 552, N-{4-[1-(3,5-difluorobenzoyl)piperidin-4-yl]phenyl}-1-(pyridazin-4-yl)azetidine-3-carboxamide], 3.32 nM; with `Cc1ccncc1N1CC(C(=O)Nc2ccc(OC3CCN(C(=O)CC4CCOCC4)CC3)cc2)C1` [Example 5, 1-(4-methylpyridin-3-yl)-N-(4-{[1-(tetrahydro-2H-pyran-4-ylacetyl)piperidin-4-yl]oxy}phenyl)azetidine-3-carboxamide], 6.75 nM.

In turn, `O=C(Nc1ccc(C2CCN(C(=O)c3cccs3)CC2)cc1)C1CN(c2cccnn2)C1` [Example 376, 1-(pyridazin-3-yl)-N-{4-[1-(thiophen-2-ylcarbonyl)piperidin-4-yl]phenyl}azetidine-3-carboxamide] had an IC50 of 0.62 nM. In turn, `O=C(Nc1ccc(C2CCN(C(=O)CCC(F)(F)F)CC2)cc1F)C1CN(c2ccnnc2)C1` [Example 872, N-{2-fluoro-4-[1-(4,4,4-trifluorobutanoyl)piperidin-4-yl]phenyl}-1-(pyridazin-4-yl)azetidine-3-carboxamide] showed an IC50 of 23.6 nM. As for `CC[C@H](C(=O)N1CCC(c2ccc(NC(=O)C3CN(c4cccnn4)C3)cc2)CC1)c1ccccc1` [Example 399, N-(4-{1-[(2S)-2-phenylbutanoyl]piperidin-4-yl}phenyl)-1-(pyridazin-3-yl)azetidine-3-carboxamide], the IC50 is 6.35 nM. `CC(C)(C)C(=O)N1CC[C@@H](Oc2ccc(NC(=O)C3CN(c4ccnnc4)C3)cc2)C1` [Example 481, N-(4-{[(3R)-1-(2,2-dimethylpropanoyl)pyrrolidin-3-yl]oxy}phenyl)-1-(pyridazin-4-yl)azetidine-3-carboxamide] gave a 50% inhibitory concentration (IC50) of 12.1 nM. With `O=C(Nc1ccc(S(=O)(=O)C2CCN(C(=O)c3ccc(Cl)cc3Cl)CC2)cc1)C1CN(c2cccnn2)C1` [Example 590, N-(4-{[1-(2,4-dichlorobenzoyl)piperidin-4-yl]sulfonyl}phenyl)-1-(pyridazin-3-yl)azetidine-3-carboxamide] the figure was 82.2 nM; with `CCCc1nc(-c2ccc(NC(=O)C3CN(c4cccnn4)C3)cc2)no1` [Example 784, N-[4-(5-propyl-1,2,4-oxadiazol-3-yl)phenyl]-1-(pyridazin-3-yl)azetidine-3-carboxamide], 16 nM; with `Cc1ccccc1C(=O)N1CCC(c2ccc(NC(=O)C3CN(c4cccnn4)C3)cc2)CC1` [Example 429, N-{4-[1-(2-methylbenzoyl)piperidin-4-yl]phenyl}-1-(pyridazin-3-yl)azetidine-3-carboxamide], 0.8 nM. The value for `CC1CC1C(=O)N1CCC(c2ccc(NC(=O)C3CN(c4cccnc4)C3)cc2)CC1` (stereo not drawn) [Example 102, N-(4-{1-[(2-methylcyclopropyl)carbonyl]piperidin-4-yl}phenyl)-1-(pyridin-3-yl)azetidine-3-carboxamide] was 0.59 nM; that for `O=C(Nc1ccc(OC2CCN(C(=O)c3cccs3)CC2)cc1)C1CN(c2cccnn2)C1` [Example 249, 1-(pyridazin-3-yl)-N-(4-{[1-(thiophen-2-ylcarbonyl)piperidin-4-yl]oxy}phenyl)azetidine-3-carboxamide] was 2.35 nM.
